Assay results taken from US20140079775A1, “AGENTS TO TREAT/PREVENT AMOEBIASIS” (priority 2011, published 2014).
Where two headings read alike, the source gives them in different places.

System: E. histolytica mediated cytotoxicity on HT-29 cell layers
Assay type: cell-based, Entamoeba histolytica
Settings: for protection of the cell layer (in words): physiologically relevant concentrations of individual HMO
Procedure: FIG. 2 HMO prevent E. histolytica mediated cytotoxicity in in vitro co-culture with enterocytes. Representative images of methylene blue stained HT-29 cell layers as such (A, left) or cocultured with HM-1 trophozoites in the absence (A, middle) or presence (A, right) of 10 mg/ml HMO. Dose response curve with different concentrations of HMO (B). The O.D 660 nm of methyleneblue cell layers was used as a measure for cytotoxicity. The cytoprotective effect of HMO was calculated as the percent ‘cell rescue’ compared to the untreated coculture (0%). Results are means SEM of 4 independent experiments. Cocultures were incubated with different glycans and cytotoxicity was determined as described above (C). […] HMO rescues cell layers when added to existing cocultures (D). HT-29 cells were cocultured with HM-1 and 20 mg/ml HMO was added at the indicated times of coculture. Cocultures were stopped and cytotoxicity was determined after 2 hrs. Control cell layers were cocultured for 2 hrs in the absence of HMO and were considered to have 0% cell rescue.
FIG. 3 Protection of the HT-29 monolayer by individual HMO. Cell rescue in co-culture treated with physiologically relevant concentrations of individual HMO (A). Symbols represent structures of individual HMO. Cell survival in the presence of equimolar concentrations of LNT, LNFP1 and a mixture of LNFP1, LNFP2, and LNFP3. […] Cytotoxicity assay with 10 mM 2′FL before and after fucosidase digestion (C). 2′FL left untreated or incubated with alpha1, 2 fucosidase was used in cytotoxicity assay. As controls, we used enzyme reaction buffer with inactivated fucosidase (control); equimolar concentrations (10 mM) of Lac, Fuc, or Fuc and Lac combined. Data from cytotoxicity assays are presented as % cell rescue compared to untreated cocultures (0%). Error bars are SEM, stars indicate statistical significance compared to control unless indicated by bars.
FIG. 4 GOS reduces cytotoxicity of trophozoites independent of its lactose content. Cell rescue in cocultures treated with increasing concentrations of GOS (triangles) or its corresponding lactose content (circles)(A). Cytotoxicity assay with GOS fractions (B). Higher numbered (eluted later) fractions contain lower molecular weight carbohydrates. The lactose content of fractions 11 and 12 is indicated above the respective bars. HPLC chromatogram of the original GOS preparation (20% lactose) (upper panel) and of the lactose free GOS (<0.5%) (C). Cytotoxicity assay with increasing concentrations of lactose-free GOS (triangles) and Lac-containing GOS (circles)(D).
HMO prevent enterocyte cytotoxicity by E. histolytica in in vitro cocultures. Previous studies have shown reduced Entamoeba attachment and cytotoxicity in the presence of selected carbohydrates (Cano-Mancera and Lopez-Revilla, 1987; Ravdin and Guerrant, 1981; Bracha and Mirelman, 1984). We tested the effect of HMO on Entamoeba induced cytotoxicity in in vitro cocultures with HT-29 cell layers and calculated the % cell rescue (FIG. 2A). […] The cell protective effect of 20 mg/ml HMO is similar to the effect of 10 mM lactose and better than the effect of 10 mM galactose (FIG. 2C). […] Treatment with 20 mg/ml after 90 min of cocultures could still rescue 31±4.7% of the cell layer.

## 3-sialyl-lactose [3′SL]
  protection of the cell layer (in words): failed to prevent monolayer destruction

## CC(=O)N[C@H]1[C@H]([C@H](O)[C@H](O)CO)O[C@@](OC[C@H]2O[C@@H](O[C@H]3[C@H](O)[C@@H](O)C(O)O[C@@H]3CO)[C@H](O)[C@@H](O)[C@H]2O)(C(=O)O)C[C@@H]1O (stereo partly drawn) [6′SL, 6-sialyl-lactose]
  protection of the cell layer (in words): failed to prevent monolayer destruction

## CC(=O)N[C@H]1[C@H](O[C@H]2[C@@H](O)[C@@H](CO)O[C@@H](O[C@H]3[C@H](O)[C@@H](O)C(O)O[C@@H]3CO)[C@@H]2O)O[C@H](CO)[C@@H](O)[C@@H]1O[C@@H]1O[C@H](CO)[C@H](O)[C@H](O)[C@H]1O[C@@H]1O[C@@H](C)[C@@H](O)[C@@H](O)[C@@H]1O (stereo partly drawn) [LNFP1]
5 mg/ml
  rescue of enterocytes (in words): no effect
10 mM
  cell rescue: 16.9±1.7%

## CC(=O)N[C@H]1[C@H](O[C@H]2[C@@H](O)[C@@H](CO)O[C@@H](O[C@H]3[C@H](O)[C@@H](O)C(O)O[C@@H]3CO)[C@@H]2O)O[C@H](CO)[C@@H](O)[C@@H]1O[C@@H]1O[C@H](CO)[C@H](O)[C@H](O)[C@H]1O (stereo partly drawn) [LNT, Lacto-N-tetraose]
5 mg/ml
  cell rescue: 49.5±9.2%
10 mM
  cell rescue: 79±8.3%
  protection of the cell layer (in words): significantly protected the cell layer

## OC[C@H]1O[C@@H](O[C@H]2[C@H](O)[C@@H](O)C(O)O[C@@H]2CO)[C@H](O)[C@@H](O)[C@H]1O (stereo partly drawn) [Lactose, lactose]
10 mM
  prevention of cytotoxicity (in words): significantly prevent cytotoxicity
Lac concentrations present in each GOS sample
  effect on cytotoxicity compared with lactose containing GOS (in words): significantly lower

## C[C@H](O)[C@@H](O)[C@@H](O)[C@H](O)C=O [fucose]
10 mM
  prevention of cytotoxicity (in words): no significant effect
10 mM, listed as Fucose
  prevention of cytotoxicity (in words): do not prevent cytotoxicity

## O=C[C@H](O)[C@@H](O)[C@@H](O)[C@H](O)CO [galactose]
10 mM
  prevention of cytotoxicity (in words): no significant effect
